Data taken from article PMC4764943, “Inhibitory effect of traditional oriental medicine-derived monoamine oxidase B inhibitor on radioresistance of non-small cell lung cancer” (Scientific Reports, 2016).

What was measured:
[1] = target: T1, MAOB (monoamine oxidase B) (Homo sapiens, UniProt P27338); assay: ITC ([…] stoichiometry); also MAOB activity inhibition in vitro, IC50 […]; assay type: binding
T1 construct: recombinant human MAOB
T1 sequence (P27338 2-520): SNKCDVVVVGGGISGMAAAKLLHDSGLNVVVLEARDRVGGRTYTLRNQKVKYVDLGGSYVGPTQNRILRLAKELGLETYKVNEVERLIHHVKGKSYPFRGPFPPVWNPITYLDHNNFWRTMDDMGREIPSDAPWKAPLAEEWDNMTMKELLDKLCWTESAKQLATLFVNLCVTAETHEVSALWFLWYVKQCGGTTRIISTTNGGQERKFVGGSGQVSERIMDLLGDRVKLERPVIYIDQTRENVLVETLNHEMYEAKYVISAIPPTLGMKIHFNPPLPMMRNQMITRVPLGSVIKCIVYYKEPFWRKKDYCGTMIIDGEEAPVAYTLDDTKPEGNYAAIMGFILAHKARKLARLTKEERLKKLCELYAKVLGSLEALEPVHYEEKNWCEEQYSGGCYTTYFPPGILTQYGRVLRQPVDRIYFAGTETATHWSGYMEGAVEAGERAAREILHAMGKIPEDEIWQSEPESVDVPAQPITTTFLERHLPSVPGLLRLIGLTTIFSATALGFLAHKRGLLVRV

[2] = target: T1, MAOB (monoamine oxidase B); assay: ITC; assay type: binding

## O=C(O)[C@H](O)Cc1ccc(O)c(O)c1 [danshensu, 3-(3,4-dihydroxyphenyl)-2-hydroxy-propanoic acid]
[1]
  Kd: 16 ± 0.8 µM

## CNCC(O)c1ccc(O)cc1 (stereo not drawn) [synephrine]
[2]; read-out: Kd
  Kd: 183 ± 10.3 µM

## COc1cc(C=O)ccc1O [vanillin]
[2]
  Kd: 165 ± 9.1 µM
